“And” between values parts separate entries of the source, which are not always exact repeats. Identical values can stand only once. No end group written: not given here.
Assays:
[1] = tested on: sheep erythrocyte (SRBC)-induced DTH reactions; assay: Sheep erythrocyte (SRBC)-induced DTH footpad swelling in mice; assay type: in vivo, female Balb/C mice; conditions: indomethacin 1.0 mg/kg on day 4 (positive control); footpad volume about 24 h after challenge
[2] = tested on: Tetanus toxoid-induced DTH reactions; parameters: species or system female Balb/C mice; conditions: mouse, in vivo
[3] = tested on: carrageenan-induced inflammation; assay: Carrageenan-induced footpad edema in mice; assay type: in vivo, female Balb/C mice
Protocol: In order to examine the ability of pentigetide to inhibit carrageenan-induced inflammation, female Balb/C mice were injected with 0.025 ml of 1.0% carrageenan solution (type 1x carrageenan: Sigma No. C-1013, Lot No. 86F-0698) or saline in the right hind footpad 5 minutes after intravenous tail vein injection of 0.2 ml pentigetide (1.0 mg/kg) or saline solution.

[4] = tested on: immune complex-induced colitis; assay: Immune complex-mediated ulcerative colitis model (formalin + IgG immune complexes) in mice; assay type: in vivo, male BKA mice (outbred Swiss albino)
Protocol: A mouse model of intestinal inflammation was employed wherein the efficacy of pentigetide in reducing inflammation induced by formalin and complement-fixing IgG immune complexes was measured. This model is particularly useful as a model of human ulcerative colitis and shares many clinical and histological functions of the human disease including sensitivity to glucocorticoids, sulfasalazine and 5-aminosalicylic acid (see L. P. Walsh, et al., British J. Pharm. 91:294 (1987); A. Blackham, et al., British J. Pharm. 89:694 (1986); L. D. Walsh and I. J. Zeitlin, British J. Pharm. 92:741 (1987)). The mouse model of intestinal inflammation used in these studies is induced by the exposure of the animals to chemicals which are known to trigger inflammatory processes in both animals and humans. […]
Colonic tissue water content was determined by tissue weight loss on drying of colonic tissues. […]
The response to immune complex alone was determined quantitatively by subtracting the mean value in group B from the mean value in group C. An estimate of the percentage reduction in this response produced by the drug was calculated as: [formula] […] Statistical significance was determined using the non-parametric Mann-Whitney U-test. […]

[5] = tested on: binding of IgE to lymphoblastoid tissue culture cells; conditions: two trials; reported in U.S. Pat. No. 4,161,522; cited from earlier work
[6] = tested on: chronic idiopathic urticaria (non-IgE-mediated); conditions: human, in vivo

COc1ccc2c(c1)c(CC(=O)O)c(C)n2C(=O)c1ccc(Cl)cc1 [Indomethacin, indomethacin]
inhibition [1]: 43% | inhibition [2]: 45% | Percent Inhibition ([3]; 1.0 hours after carrageenan injection, indomethacin 10 mg/kg s.c. 24 hours prior to carrageenan): -35% | Percent Inhibition ([3]; 2.0 hours after carrageenan injection, indomethacin 10 mg/kg s.c.): -60% | Percent Inhibition ([3]; 4.0 hours after carrageenan injection, indomethacin 10 mg/kg s.c.): -39% | Percent Inhibition ([3]; 6.0 hours after carrageenan injection, indomethacin 10 mg/kg s.c.): -47%

C[C@]12C=CC(=O)C=C1CC[C@@H]1[C@@H]2[C@@H](O)C[C@@]2(C)[C@H]1CC[C@]2(O)C(=O)CO [prednisolone]
reduction of colonic edema ([4]; prednisolone 5.0 mg/kg i.p. for three days prior to inflammation induction and daily thereafter, p<0.01): 86.2% | reduction of colonic edema (printed in the colitic sign score paragraph) ([4]; prednisolone 5.0 mg/kg i.p., p<0.001): 93.8%

Asn-Ser-Asn-Pro-Arg (NSNPR; printed: Asn-Ser-Asn-Pro-Arg) [peptide reported in U.S. Pat. No. 4,161,522]
activity: ability to block binding of IgE to lymphoblastoid tissue culture cells [5]: lower activity

Asn-Ser-Asp-Pro-Arg (NSDPR; printed: Asn-Ser-Asp-Pro-Arg) [peptide reported in U.S. Pat. No. 4,161,522]
activity: ability to block binding of IgE to lymphoblastoid tissue culture cells [5]: lower activity

DSDPR [pentigetide, Asp-Ser-Asp-Pro-Arg]
side effects from the treatment [6]: did not experience any side effects

[-Cys-Ala-Asn-Ser-Asn-Pro-Arg]2
activity: ability to block binding of IgE to lymphoblastoid tissue culture cells [5]: 9% and 12%

Source: patent US5468730A, “Methods for the treatment of non-IgE-mediated diseases” (Dura Pharmaceuticals, Inc., priority 1992, dated 1995)
